For this experiment, the system named is BDF1 mice, P388 leukemia ip, median survival T/C. The experiment can be described thus: NCI In Vivo Anticancer Drug Screen. Data for tumor model P388 Leukemia (intraperitoneal) in B6D2F1 (BDF1) mice. The settings on record: endpoint: median survival time, higher = longer survival. The procedure, abridged: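 Antitumour effect was judged in vivo: survival in drug-treated mice, normalised to that of vehicle-dosed controls, gives the reported T/C.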

Setting [1] is: dose: 12.5 mg/kg/injection, schedule: Q01DX009 (ip), vehicle: saline with Tween-80.
[2] abbreviates: dose: 25.0 mg/kg/injection, schedule: Q01DX009 (ip), vehicle: saline with Tween-80.
Where [3] appears, read: dose: 50.0 mg/kg/injection, schedule: Q01DX009 (ip), vehicle: saline with Tween-80.
Where [4] appears, read: dose: 50.0 mg/kg/injection, schedule: Q04DX003 (ip), vehicle: saline with Tween-80.
Where [5] appears, read: dose: 25.0 mg/kg/injection, schedule: Q01DX009 (ip), vehicle: water.
Setting [6] is: dose: 50.0 mg/kg/injection, schedule: Q01DX009 (ip), vehicle: water.
The mark [7] stands for this setting: dose: 100.0 mg/kg/injection, schedule: Q01DX009 (ip), vehicle: water.
Setting [8] is: dose: 200.0 mg/kg/injection, schedule: Q01DX009 (ip), vehicle: water.
The mark [9] stands for this setting: dose: 50.0 mg/kg/injection, schedule: Q04DX003 (ip), vehicle: water.
[10] abbreviates: dose: 100.0 mg/kg/injection, schedule: Q04DX003 (ip), vehicle: water.
The mark [11] stands for this setting: dose: 200.0 mg/kg/injection, schedule: Q04DX003 (ip), vehicle: water.
The mark [12] stands for this setting: dose: 400.0 mg/kg/injection, schedule: Q04DX003 (ip), vehicle: water.
Setting [13] is: dose: 100.0 mg/kg/injection, schedule: Q01DX009 (ip), vehicle: saline with Tween-80.
Setting [14] is: dose: 200.0 mg/kg/injection, schedule: Q01DX009 (ip), vehicle: saline with Tween-80.
The mark [15] stands for this setting: dose: 100.0 mg/kg/injection, schedule: Q04DX003 (ip), vehicle: saline.
Where [16] appears, read: dose: 200.0 mg/kg/injection, schedule: Q04DX003 (ip), vehicle: saline.

Each structure is given as a SMILES string. Inconclusive results and toxic doses are left out.

On to `c1ccc(SCC2c3ccccc3Nc3ccccc32)cc1`, for which the T/C reads like this: (dose: 100.0 mg/kg/injection, schedule: Q01DX001 (ip), vehicle: saline with Tween-80) 109 % of control; (dose: 200.0 mg/kg/injection, schedule: Q01DX001 (ip), vehicle: saline with Tween-80) 114 % of control; (dose: 400.0 mg/kg/injection, schedule: Q01DX001 (ip), vehicle: saline with Tween-80) 109 % of control.

Turning to `COc1cc(C=Nc2cccc(Cl)c2)ccc1N(CCCl)CCCl`, the T/C (dose: 8.0 mg/kg/injection, schedule: Q04DX003 (ip), vehicle: saline with Tween-80) is 195 % of control; the T/C under setting [1] was 187 % of control; the T/C (dose: 16.0 mg/kg/injection, schedule: Q04DX003 (ip), vehicle: saline with Tween-80) is 187 % of control; the T/C under setting [2] is 187 % of control; the T/C (dose: 33.0 mg/kg/injection, schedule: Q04DX003 (ip), vehicle: saline with Tween-80) is 207 % of control; the T/C under setting [3] is 95 % of control. Moreover, under setting [4], the T/C is 230 % of control.

On to `CC1(C)C/C(=C\c2ccccc2)C(=O)c2ccccc21`, for which the T/C under setting [5] was 106 % of control; the T/C under setting [6] was 95 % of control; the T/C under setting [7] is 106 % of control; the T/C under setting [8] is 88 % of control; the T/C (dose: 400.0 mg/kg/injection, schedule: Q01DX009 (ip), vehicle: water) is 100 % of control.

`Cc1nnc2ncnn2c1N(C)c1ccccc1`: the T/C reads like this: under setting [4], 100 % of control; (dose: 100.0 mg/kg/injection, schedule: Q04DX003 (ip), vehicle: saline with Tween-80) 95 % of control; (dose: 200.0 mg/kg/injection, schedule: Q04DX003 (ip), vehicle: saline with Tween-80) 100 % of control.

`CC(=O)n1ncc2ccc(N)cc21`: the T/C is 94 % of control under setting [5]; 96 % of control under setting [6]; 103 % of control under setting [9]; 102 % of control under setting [7]; 103 % of control under setting [10]; 99 % of control under setting [8]. Besides, the T/C was 101 % of control under setting [11] and 120 % of control under setting [12].

Turning to `Cc1cc(NC(=O)c2ccc(C(=O)Nc3ccc(C4=NCCN4)c(C)c3)cc2)ccc1C1=NCCN1`, the T/C reads like this: under setting [13], 122 % of control; under setting [14], 186 % of control.

As to `CCCCNC(C)C1(O)Cc2c(O)c3c(c(O)c2C(OC2CC(N)C(O)C(C)O2)C1)C(=O)c1c(OC)cccc1C3=O` (stereo not given), the T/C runs as follows: (dose: 10.0 mg/kg/injection, schedule: Q01DX009 (ip), vehicle: water) 157 % of control; (dose: 20.0 mg/kg/injection, schedule: Q01DX009 (ip), vehicle: water) 168 % of control; (dose: 25.0 mg/kg/injection, schedule: Q04DX003 (ip), vehicle: water) 116 % of control; (dose: 40.0 mg/kg/injection, schedule: Q01DX009 (ip), vehicle: water) 185 % of control; under setting [9], 114 % of control; under setting [10], 105 % of control. Further, the T/C under setting [11] is 151 % of control and the T/C under setting [12] was 118 % of control.

In the case of `COc1ccc(CN(CCO)C(C)=O)cc1`, the T/C is, setting by setting: (dose: 100.0 mg/kg/injection, schedule: Q01DX009 (ip), vehicle: saline) 102 % of control; under setting [15], 100 % of control; (dose: 200.0 mg/kg/injection, schedule: Q01DX009 (ip), vehicle: saline) 109 % of control; under setting [16], 100 % of control; (dose: 400.0 mg/kg/injection, schedule: Q01DX009 (ip), vehicle: saline) 115 % of control; (dose: 400.0 mg/kg/injection, schedule: Q04DX003 (ip), vehicle: saline) 95 % of control.

Regarding `Cc1cccc(N2CCN(CCC#N)CC2)c1`, the T/C under setting [2] is 91 % of control, the T/C under setting [3] is 95 % of control and the T/C under setting [13] is 91 % of control.

For `Cc1c(F)cc(I)cc1[N+](=O)[O-]`, the T/C reads like this: (dose: 100.0 mg/kg/injection, schedule: Q01DX001 (ip), vehicle: Klucel (hydroxypropylcellulose) (HPC)) 113 % of control; (dose: 200.0 mg/kg/injection, schedule: Q01DX001 (ip), vehicle: Klucel (hydroxypropylcellulose) (HPC)) 104 % of control; (dose: 400.0 mg/kg/injection, schedule: Q01DX001 (ip), vehicle: Klucel (hydroxypropylcellulose) (HPC)) 118 % of control.

As to `C=CCCCCCCCCC(=O)NCc1cccnc1`, the T/C under setting [13] was 86 % of control; the T/C under setting [14] was 95 % of control; the T/C (dose: 400.0 mg/kg/injection, schedule: Q01DX009 (ip), vehicle: saline with Tween-80) is 100 % of control.

Take `CC(=O)CC(=O)NCCCN1CCCCC1`: the T/C was 92 % of control under setting [1]; 88 % of control under setting [2]; 96 % of control (dose: 25.0 mg/kg/injection, schedule: Q04DX003 (ip), vehicle: saline with Tween-80); 88 % of control under setting [4].

Take `CC(=O)[O][Hg][c]1c(C)c(C)cc(C)c1C`: the T/C reads like this: (dose: 12.5 mg/kg/injection, schedule: Q01DX009 (ip), vehicle: saline) 108 % of control; (dose: 25.0 mg/kg/injection, schedule: Q01DX009 (ip), vehicle: saline) 121 % of control.

In the case of `CCSC1(SCC)C(=O)OC2=C(CCCC2)C1N1CCOCC1` (stereo not given), the T/C is 99 % of control under setting [3], 99 % of control under setting [13] and 94 % of control under setting [14].

Regarding `Nc1nncs1`, the T/C runs as follows: (dose: 7.8 mg/kg/injection, schedule: Q01DX010 (ip), vehicle: saline) 118 % of control; (dose: 12.5 mg/kg/injection, schedule: Q01DX010 (ip), vehicle: saline) 100 % of control; (dose: 15.6 mg/kg/injection, schedule: Q01DX010 (ip), vehicle: saline) 154 % of control; (dose: 25.0 mg/kg/injection, schedule: Q01DX010 (ip), vehicle: saline) 163 % of control; (dose: 25.0 mg/kg/injection, schedule: Q04DX003 (ip), vehicle: saline) 118 % of control; (dose: 50.0 mg/kg/injection, schedule: Q01DX010 (ip), vehicle: saline) 190 % of control. The T/C is, setting by setting: (dose: 100.0 mg/kg/injection, schedule: Q01DX010 (ip), vehicle: saline) 100 % of control; under setting [15], 172 % of control; (dose: 108.0 mg/kg/injection, schedule: Q04DX003 (ip), vehicle: saline) 154 % of control; (dose: 173.0 mg/kg/injection, schedule: Q04DX003 (ip), vehicle: other) 179 % of control; (dose: 180.0 mg/kg/injection, schedule: Q04DX003 (ip), vehicle: saline) 208 % of control; under setting [16], 181 % of control. Also, the T/C (dose: 288.0 mg/kg/injection, schedule: Q04DX003 (ip), vehicle: other) is 212 % of control.

As to `CCOc1ccc(Nc2ncnc3nc[nH]c23)cc1CN(CCCl)CCCl`, the T/C is, setting by setting: (dose: 0.13 mg/kg/injection, schedule: Q04DX003 (ip), vehicle: saline) 106 % of control; (dose: 0.2 mg/kg/injection, schedule: Q04DX003 (ip), vehicle: saline) 117 % of control; (dose: 0.25 mg/kg/injection, schedule: Q01DX009 (ip), vehicle: saline) 118 % of control; (dose: 0.29 mg/kg/injection, schedule: Q04DX003 (ip), vehicle: saline) 196 % of control; (dose: 0.3 mg/kg/injection, schedule: Q04DX003 (ip), vehicle: saline) 121 % of control; (dose: 0.88 mg/kg/injection, schedule: Q04DX003 (ip), vehicle: saline) 165 % of control. Besides, the T/C is 154 % of control (dose: 1.0 mg/kg/injection, schedule: Q01DX009 (ip), vehicle: saline); 205 % of control (dose: 1.0 mg/kg/injection, schedule: Q04DX003 (ip), vehicle: saline); 172 % of control (dose: 2.0 mg/kg/injection, schedule: Q01DX009 (ip), vehicle: saline); 163 % of control (dose: 2.2 mg/kg/injection, schedule: Q01DX009 (ip), vehicle: saline); 155 % of control (dose: 3.0 mg/kg/injection, schedule: Q04DX003 (ip), vehicle: saline); 154 % of control (dose: 3.3 mg/kg/injection, schedule: Q01DX009 (ip), vehicle: saline).

Source of the values: PubChem BioAssay AID328 (DTP/NCI, 2004).
